Data as given in patent US7060292B2, “Lipid structures and uses thereof” (GESynthesis, Inc., priority 2001, dated 2006).

How the values were obtained:
[1] = Movement across bilayer into vesicle interior containing cyclodextrin-esterified DPH (permeability coefficient); format: physicochemical
Protocol: Calculation of permeability coefficient (P). The rate constant (kn) for and maximum extent of (Δm) fluorescence change are determined using direct curve fitting procedures (nonlinear regression) assuming that test substance movement is a simple first order process. Deviation from first-order kinetics may be encountered when test compound movement into, out of, or across the membrane is carrier- or channel-mediated or the drug concentration approaches saturation. […] In general an increasing signal takes the form: Et=Eb+En(1−e^−k^n^t)+En+1(1−e^−k^n+1^t)+. . . and a decreasing signal takes the form: Et=Eb+Ene^−k^n^t+En+1e^−k^n+1^t+. . . , where Et is the fluorescence of the system at time t, En is the fluorescence of the system either at time zero (for a decreasing signal) or infinity (for an increasing signal), Eb is the system fluorescence insensitive to addition or removal of test compound, t is time, and kn is the rate constant describing the rate of fluorescence decrease or increase. If more than one first order process is detected, the second or third processes are characterized by En+1, and kn+1 and by En+2 and kn+2, respectively.
The half-life for test compound movement across the bilayer is computed from the rate constant as t1/2=0.693/kn.
The molar flux (v) of a test compound across the membrane is computed as […]

[2] = Stein 1985; cited from earlier work
[3] = pKa and ionization of test compounds; format: physicochemical

Structure (SMILES): CCO [ethanol]
- rate constant kn for uptake into vesicle interior ([1]; 10 μg lipid vesicles in 2 ml buffer, 10 μl ethanol): 62.9 per second
- diffusion coefficient Dm ([1]; computed from P and K assuming λ=40×10^−8 cm): 3.9×10^−7 cm^−2·s^−1
- diffusion coefficient Dm, reported value [2]: 1.5×10^−7 cm^−2s^−1

Structure (SMILES): CCCCCC(=O)O [hexanoic acid]
- percentage ionized ([3]; pH 4.0): ~13%
- percentage ionized ([3]; pH 7.0): > 99%

Structure (SMILES): CCCCCCO [hexanol]
- ionization ([3]; pH 4.0 and pH 7.0): not substantially ionized at either pH
